The target in assay [1] is T1, DGK-θ (Homo sapiens, UniProt P52824).
T1 sequence (P52824 1-942): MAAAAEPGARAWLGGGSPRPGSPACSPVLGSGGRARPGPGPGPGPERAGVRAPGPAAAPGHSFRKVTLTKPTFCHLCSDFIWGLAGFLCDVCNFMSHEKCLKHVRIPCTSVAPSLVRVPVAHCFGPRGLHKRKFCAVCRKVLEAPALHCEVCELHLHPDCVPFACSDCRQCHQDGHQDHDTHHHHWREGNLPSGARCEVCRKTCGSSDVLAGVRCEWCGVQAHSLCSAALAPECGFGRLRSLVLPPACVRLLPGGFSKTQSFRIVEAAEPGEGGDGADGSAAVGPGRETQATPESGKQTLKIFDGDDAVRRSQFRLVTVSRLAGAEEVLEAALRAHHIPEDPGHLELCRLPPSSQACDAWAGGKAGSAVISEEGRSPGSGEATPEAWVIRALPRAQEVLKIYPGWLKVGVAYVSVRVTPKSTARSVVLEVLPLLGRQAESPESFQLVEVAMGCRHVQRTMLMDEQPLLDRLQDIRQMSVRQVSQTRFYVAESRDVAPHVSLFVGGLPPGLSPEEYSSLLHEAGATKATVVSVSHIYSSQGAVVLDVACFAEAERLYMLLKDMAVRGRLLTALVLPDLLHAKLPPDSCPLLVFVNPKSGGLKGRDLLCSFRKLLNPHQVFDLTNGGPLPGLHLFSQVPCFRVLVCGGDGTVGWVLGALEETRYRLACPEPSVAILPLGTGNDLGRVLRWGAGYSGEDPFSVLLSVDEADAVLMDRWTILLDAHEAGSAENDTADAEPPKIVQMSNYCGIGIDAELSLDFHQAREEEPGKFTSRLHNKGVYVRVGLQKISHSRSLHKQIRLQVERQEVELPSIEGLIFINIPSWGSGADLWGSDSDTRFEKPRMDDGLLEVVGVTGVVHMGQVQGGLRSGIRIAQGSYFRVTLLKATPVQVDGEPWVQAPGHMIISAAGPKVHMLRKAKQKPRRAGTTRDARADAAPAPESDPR

The target in assay [2] is T1, DGK-θ. The assay can be described thus: DGK activity assay. Format: biochemical.

Regarding `O=P(O)(O)OP(=O)(O)O` [NaPPi, sodium pyrophosphate], the “DGK activity assay in OG mixed micelles with cytosol over-expressing DGKθ; dose” value at DGK-θ [1] was in the range of 1 to 2 mM.
As for `COc1ccc2c(c1)CC[C@@H]1[C@@H]2CC[C@]2(C)[C@@H](NCCCCCCN3C(=O)C=CC3=O)CC[C@@H]12` [U73122], the Ki on DGK-θ [2] was about 20 µM.

In general, Ki refers to a dissociation constant, usually derived from enzyme kinetics or from competition with a known ligand.

The values above are taken from paper PMC3608514 (Advances in enzyme regulation, 2009).
